How the values were obtained:
Format in all cases: in vivo
rice (Oryza sativa) = assay: Test B flooded paddy test plant response
How it was run: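 Rice, umbrella sedge, ducksalad and barnyardgrass at 2-leaf stage; pots flooded to 3 cm, compounds applied into paddy water, depth held throughout. Greenhouse 13 to 15 days, then visual rating vs untreated controls on 0–100 scale (0 no effect, 100 complete control); dash means no test result.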

[1] = tested on: velvetleaf (Abutilon theophrasti); assay: Test B pre-/postemergence plant response; conditions: for Velvetleaf plant response rating: 8 g ai/ha
How it was run: (§1)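 Seeds were sown and sprayed preemergence, while plants at 2 to 18 cm (1- to 4-leaf stage) got postemergence sprays. Compounds were formulated in a non-phytotoxic solvent mixture with surfactant. After 13 to 15 days in a greenhouse, injury was rated visually against untreated controls, 0 (no effect) to 100 (complete control).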

soybean (Glycine max) = assay: Test B pre-/postemergence plant response; conditions: for Soybean plant response rating: 8 g ai/ha
How it was run: as §1

[2] = tested on: large crabgrass (Digitaria sanguinalis); assay: Test B pre-/postemergence plant response; conditions: for Crabgrass, Large plant response rating: 8 g ai/ha
How it was run: as §1

[3] = tested on: wheat (Triticum aestivum); assay: Test B pre-/postemergence plant response; conditions: for Wheat plant response rating: 8 g ai/ha
How it was run: as §1

[4] = tested on: catchweed bedstraw (Galium aparine); assay: Test B pre-/postemergence plant response; conditions: Preemergence, scale 0 to 100
How it was run: as §1

[5] = tested on: downy bromegrass (Bromus tectorum); assay: Test B pre-/postemergence plant response; conditions: for Bromegrass, Downy plant response rating: 8 g ai/ha
How it was run: as §1

[6] = tested on: green foxtail (Setaria viridis); assay: Test B pre-/postemergence plant response; conditions: for Foxtail, Green plant response rating: 8 g ai/ha
How it was run: as §1

[7] = tested on: common (oilseed) sunflower (Helianthus annuus); assay: Test B pre-/postemergence plant response; conditions: Preemergence
How it was run: as §1

[8] = tested on: goosegrass (Eleusine indica); assay: Test B pre-/postemergence plant response; conditions: for Goosegrass plant response rating: 8 g ai/ha
How it was run: as §1

[9] = tested on: woolly cupgrass (Eriochloa villosa); assay: Test B pre-/postemergence plant response
How it was run: as §1

[10] = tested on: Russian thistle (Salsola iberica); assay: Test B pre-/postemergence plant response; conditions: Preemergence
How it was run: as §1

[11] = tested on: pigweed (Amaranthus retroflexus); assay: Test B pre-/postemergence plant response; conditions: for Pigweed plant response rating: 8 g ai/ha
How it was run: as §1

[12] = tested on: cocklebur (Xanthium strumarium); assay: Test B pre-/postemergence plant response; conditions: for Cocklebur plant response rating: 8 g ai/ha
How it was run: as §1

[13] = Postemergence, 16 g ai/ha, scale 0 to 100
[14] = Postemergence, 62 g ai/ha, scale 0 to 100, 0 no effect, 100 complete control
[15] = Preemergence, 16 g ai/ha, scale 0 to 100 (0 no effect, 100 complete control)
[16] = Preemergence, 31 g ai/ha, scale 0 to 100 (0 no effect, 100 complete control)
[17] = Preemergence, 62 g ai/ha, 0 to 100 scale, 0 no effect, 100 complete control
[18] = Preemergence, 62 g ai/ha, scale 0 to 100
[19] = Postemergence, 31 g ai/ha, scale 0 to 100, 0 no effect, 100 complete control
[20] = Preemergence, 31 g ai/ha, 0 to 100 scale, 0 no effect, 100 complete control
[21] = 16 g ai/ha, scale 0 to 100 (0 no effect, 100 complete control)

Cc1cc(-c2ccc(C(F)(F)F)c(F)c2)nn1-c1c(O)c(C(F)(F)F)nn(C)c1=O [Compound 44]
Plant response rating, Rice (rice (Oryza sativa); Flood (flooded paddy test), 62 g ai/ha, scale 0 to 100, 0 no effect, 100 complete control): 15
Plant response rating, Rice (rice (Oryza sativa); Flood (flooded paddy test), 125 g ai/ha, scale 0 to 100, 0 no effect, 100 complete control): 20
Plant response rating, Rice (rice (Oryza sativa); Flood (flooded paddy test), 250 g ai/ha, scale 0 to 100, 0 no effect, 100 complete control): 40
Plant response rating, Rice (rice (Oryza sativa); Flood, 31 g ai/ha, scale 0 to 100): 0
Velvetleaf plant response rating ([1]; postemergence, 0-100 scale): 0
Plant response rating, Velvetleaf [1, 13]: 0
Plant response rating, Velvetleaf [1, 14]: 0
Plant response rating, Velvetleaf [1, 15]: 0
Plant response rating, Velvetleaf [1, 16]: 0
Plant response rating, Velvetleaf [1, 17]: 0
Velvetleaf plant response rating ([1]; Preemergence, scale 0 to 100): 0
Soybean plant response rating (soybean (Glycine max); postemergence, 0-100 scale): 0
Plant response rating, Soybean (soybean (Glycine max); [13]): 0
Plant response rating, Soybean (soybean (Glycine max); [14]): 0
Plant response rating, Soybean (soybean (Glycine max); [16]): 70
Plant response rating, Soybean (soybean (Glycine max); [18]): 90
Soybean plant response rating (soybean (Glycine max); Preemergence, scale 0 to 100): 0
Crabgrass, Large plant response rating ([2]; postemergence, 0-100 scale): 60
Plant response rating, Crabgrass, Large [2, 13]: 65
Plant response rating, Crabgrass, Large [2, 19]: 90
Plant response rating, Crabgrass, Large [2, 14]: 98
Plant response rating, Crabgrass, Large [2, 15]: 0
Plant response rating, Crabgrass, Large [2, 20]: 0
Plant response rating, Crabgrass, Large [2, 18]: 0
Crabgrass, Large plant response rating ([2]; Preemergence, scale 0 to 100): 0
Wheat plant response rating ([3]; postemergence, 0-100 scale): 55
Plant response rating, Wheat [3, 13]: 90
Plant response rating, Wheat [3, 14]: 95
Plant response rating, Wheat [3, 15]: 0
Plant response rating, Wheat [3, 16]: 10
Plant response rating, Wheat [3, 17]: 90
Wheat plant response rating ([3]; Preemergence, scale 0 to 100): 0
Plant response rating, Galium ([4]; 62 g ai/ha): 0
Galium plant response rating ([4]; 8 g ai/ha): 0
Bromegrass, Downy plant response rating ([5]; postemergence, 0-100 scale): 40
Plant response rating, Bromegrass, Downy [5, 13]: 60
Plant response rating, Bromegrass, Downy [5, 19]: 70
Plant response rating, Bromegrass, Downy [5, 14]: 90
Plant response rating, Bromegrass, Downy [5, 15]: 20
Plant response rating, Bromegrass, Downy [5, 20]: 60
Plant response rating, Bromegrass, Downy [5, 18]: 85
Bromegrass, Downy plant response rating ([5]; Preemergence, scale 0 to 100): 0
Foxtail, Green plant response rating ([6]; postemergence, 0-100 scale): 75
Plant response rating, Foxtail, Green [6, 13]: 95
Plant response rating, Foxtail, Green [6, 19]: 95
Plant response rating, Foxtail, Green [6, 14]: 100
Plant response rating, Foxtail, Green [6, 15]: 98
Plant response rating, Foxtail, Green [6, 20]: 100
Plant response rating, Foxtail, Green [6, 18]: 100
Foxtail, Green plant response rating ([6]; Preemergence, scale 0 to 100): 40
Plant response rating, Sunflower [7, 21]: 0
Plant response rating, Sunflower ([7]; 62 g ai/ha, scale 0 to 100): 0
Sunflower plant response rating ([7]; 8 g ai/ha, scale 0 to 100): 0
Goosegrass plant response rating ([8]; postemergence, 0-100 scale): 60
Plant response rating, Goosegrass [8, 13]: 60
Plant response rating, Goosegrass [8, 19]: 75
Plant response rating, Goosegrass [8, 14]: 90
Plant response rating, Goosegrass [8, 15]: 0
Plant response rating, Goosegrass [8, 20]: 0
Plant response rating, Goosegrass [8, 18]: 0
Goosegrass plant response rating ([8]; Preemergence, scale 0 to 100): 0
Cupgrass, Woolly plant response rating ([9]; 8 g ai/ha, postemergence, 0-100 scale): 98
Plant response rating, Cupgrass, Woolly [9, 13]: 98
Plant response rating, Cupgrass, Woolly [9, 19]: 100
Plant response rating, Cupgrass, Woolly [9, 14]: 100
Plant response rating, Cupgrass, Woolly [9, 15]: 0
Plant response rating, Cupgrass, Woolly [9, 20]: 0
Plant response rating, Cupgrass, Woolly [9, 18]: 100
Plant response rating, Russian Thistle [10, 21]: 0
Plant response rating, Russian Thistle ([10]; 31 g ai/ha, scale 0 to 100 (0 no effect, 100 complete control)): 0
Plant response rating, Russian Thistle ([10]; 62 g ai/ha, scale 0 to 100): 0
Russian Thistle plant response rating ([10]; 8 g ai/ha, scale 0 to 100): 0
Pigweed plant response rating ([11]; postemergence, 0-100 scale): 0
Plant response rating, Pigweed [11, 13]: 0
Plant response rating, Pigweed [11, 19]: 0
Plant response rating, Pigweed [11, 14]: 0
Plant response rating, Pigweed [11, 15]: 0
Plant response rating, Pigweed [11, 16]: 0
Plant response rating, Pigweed [11, 18]: 0
Pigweed plant response rating ([11]; Preemergence, scale 0 to 100): 0
Cocklebur plant response rating ([12]; postemergence, 0-100 scale): 0
Plant response rating, Cocklebur [12, 13]: 0
Plant response rating, Cocklebur [12, 19]: 0
Plant response rating, Cocklebur [12, 14]: 0
Plant response rating, Cocklebur [12, 15]: 0
Plant response rating, Cocklebur [12, 20]: 0
Plant response rating, Cocklebur [12, 18]: 0
Cocklebur plant response rating ([12]; Preemergence, scale 0 to 100): 0

Reference: patent publication US20100267561A1, “HERBICIDAL PYRIDAZINONE DERIVATIVES” (priority 2007, published 2010)
